Series [1] deals with T1, Proteasome subunit beta type-8 (Homo sapiens, UniProt P28062).
T1 sequence (P28062 whole entry): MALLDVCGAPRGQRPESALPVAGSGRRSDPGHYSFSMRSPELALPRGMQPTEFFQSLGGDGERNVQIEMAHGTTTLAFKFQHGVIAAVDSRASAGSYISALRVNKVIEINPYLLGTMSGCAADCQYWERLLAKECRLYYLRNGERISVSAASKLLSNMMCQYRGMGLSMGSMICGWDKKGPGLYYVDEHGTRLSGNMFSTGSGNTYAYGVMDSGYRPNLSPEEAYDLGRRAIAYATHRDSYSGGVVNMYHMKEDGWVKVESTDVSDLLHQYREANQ
Kind of series: Inhibition of human LMP7 beta -5i subunit using Ac-ANW-AMC as substrate preincubated with compound for 30 mins followed by substrate addition and measured after 1 hr by fluorescence based analysis.

Series [2] is filed under the species Homo sapiens. The experiment in a line: Selectivity index, ratio of IC50 for inhibition of human 20S proteosome beta5c subunit using Ac-WLA-AMC as substrate to IC50 for inhibition of human LMP7 beta -5i subunit using Ac-ANW-AMC as substrate.
The target in series [3] is T2, Proteasome Macropain subunit MB1 (Homo sapiens, UniProt P28074).
T2 sequence (P28074 whole entry): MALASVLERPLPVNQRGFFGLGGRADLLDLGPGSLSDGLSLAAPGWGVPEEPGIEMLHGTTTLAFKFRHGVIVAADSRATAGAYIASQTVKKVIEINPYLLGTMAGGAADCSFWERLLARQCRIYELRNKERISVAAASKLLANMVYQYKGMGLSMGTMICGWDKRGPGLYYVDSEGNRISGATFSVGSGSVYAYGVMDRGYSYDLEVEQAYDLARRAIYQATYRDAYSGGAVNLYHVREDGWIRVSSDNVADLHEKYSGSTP
The experiment in a line: Inhibition of human 20S proteosome beta5c subunit using Ac-WLA-AMC as substrate preincubated with compound for 30 mins followed by substrate addition and measured after 1 hr by fluorescence based analysis.

The target in series [4] is T3, Proteasome subunit beta type-9 (Homo sapiens, UniProt P28065).
T3 sequence (P28065 whole entry): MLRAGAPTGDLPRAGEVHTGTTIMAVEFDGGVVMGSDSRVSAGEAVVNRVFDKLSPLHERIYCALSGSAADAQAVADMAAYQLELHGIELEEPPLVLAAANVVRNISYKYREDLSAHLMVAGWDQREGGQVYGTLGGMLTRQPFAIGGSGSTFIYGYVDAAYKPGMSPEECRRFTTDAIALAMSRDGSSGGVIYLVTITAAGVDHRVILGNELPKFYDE
Kind of series: Inhibition of human LMP2 beta-1i subunit using Ac-PAL-AMC as substrate preincubated with compound for 30 mins followed by substrate addition and measured after 1 hr by fluorescence based analysis.

A short description of series [5]: Drug metabolism in human liver microsomes assessed as reactive metabolite formation by measuring dGSH trapping measured per mg of protein incubated for 60 mins in presence of NADPH by HPLC analysis. The series is classed as ADME, Microsome. The following applies: 1 h.
The nature of series [6]: Permeability of the compound by PAMPA assay. The following applies: read-out: permeability. It counts as ADME. For orientation: PAMPA measures passive passage across an artificial lipid membrane.
In series [7] the test system is Mus musculus. Kind of series: Inhibition of NP30-IgG production in NP-OVA-induced po dosed C57BL/6 mouse model administered for 9 days by ELISA analysis. It counts as functional, organism-based. Particulars: dose 3-30 mg/kg, time 9.0 day. (In general: An ELISA detects its analyte on a solid surface through an enzyme-linked reagent.)
A further series deals with Plasma. Kind of series: Reduction in NP30-specific IgG level in plasma of NP-OVA-induced C57BL/6 mouse model at 30 mg/kg, po administered for 9 days by ELISA analysis. Particulars: time 9.0 day. The series is classed as functional, organism-based.
The nature of series [8]: Effect on hematological parameters in C57BL/6 mouse at 3 to 30 mg/kg, po administered for 9 days. Particulars: in vivo, 216 h, dose 3-30 mg/kg, time 9 day. The series is classed as toxicity, organism-based.
Series [9] can be described thus: Microsomal stability in mouse liver microsome assessed as intrinsic clearance. It counts as ADME. The following applies: liver microsomes, read-out: CLH. Background: Liver microsomes are vesicles of endoplasmic reticulum, rich in cytochrome P450 enzymes.
For series [10], the system named is Mus musculus. The experiment in a line: Reduction in NP30-specific IgG level in GCB of NP-OVA-induced C57BL/6 mouse model at 10 to 30 mg/kg, po administered for 9 days by flow cytometry analysis. It counts as functional, organism-based. The following applies: dose 10-30 mg/kg, time 9.0 day.
The species named for series [11] is Homo sapiens. The experiment in a line: Selectivity index, ratio of IC50 for inhibition of human 20S proteosome beta5c subunit using Ac-WLA-AMC as substrate to IC50 for inhibition of human LMP2 beta-1i subunit using Ac-PAL-AMC as substrate.

The record followed here is ChEMBL document CHEMBL5550181 (Bioorg Med Chem, 2024).

Calls of active or inactive are those of the source. The calls are words filed in the database; no cut-off is given here.

The IC50 is the point on the concentration scale where inhibition reaches its midpoint. Regarding `O=C(N[C@@H](Cc1coc2ccccc12)B(O)O)[C@@H]1C[C@H]2CC[C@@H]1O2`, the half-inhibitory concentration (IC50) in [1] was 0.008 µM; in series [3] it was 2.41 µM; in series [4], greater than 80 µM. For the same compound, the Ratio IC50 in the series filed under Homo sapiens [2] is 302.
As to `O=C(N[C@@H](Cc1ccccc1)B(O)O)c1cn(C2CCCCC2)nn1`, the IC50 in series [1] came to 0.008 µM; in series [3], 0.302 µM; in [4], 0.005 µM. For the same compound, the Ratio IC50 in the series listed under Homo sapiens [2] came to 38. The Drug metabolism in series [5] is 736 pmol/h.
With `O=C(N[C@@H](CC1CCCC1)B(O)O)c1cn(C2CCCCC2)nn1`, the IC50 in series [1] was 0.063 µM; in series [3], 15.4 µM; in series [4], less than 0.005 µM. Further, the Ratio IC50 in the series filed under Homo sapiens [2] amounted to 244. Besides, in series [5], the Drug metabolism is 426 pmol/h.
For the compound `CC(C)C[C@H](NC(=O)c1cc(C2CCCCC2)no1)B(O)O`, the IC50 in series [1] worked out at 0.192 µM; in series [3], 3.69 µM; in [4] it was 0.005 µM. The Ratio IC50 in the series listed under Homo sapiens [2] came to 19.
For `CC(C)C[C@H](NC(=O)c1ccc(C2CCCCC2)nn1)B(O)O`, in that order: 0.082 µM, 2.95 µM, 0.01 µM and 36.
Taken in the same sequence, the figures for `CC(C)C[C@H](NC(=O)c1cc(C2CCCCC2)nn1C)B(O)O` were 0.888 µM, 19.5 µM, 0.226 µM and 22.
As for `O=C(N[C@H](B(O)O)C1CCCCC1)c1cn(C2CCCCC2)nn1`, the 50% inhibitory concentration (IC50) in [1] is 0.257 µM; in series [3] it was 44.6 µM; in [4], 0.01 µM. The Papp in series [6] was found to be 11.9 ×10⁻⁶ cm/s. Besides, in the series listed under Homo sapiens [2], the Ratio IC50 was found to be 174. In the series with Mus musculus [7], the inhibition entry is “Dose-Dependent Effect”. In [5], the Drug metabolism turned out to be 342 pmol/h. For the same compound, the outcome in the series with Plasma and with Mus musculus [10] was Active. The Activity result in series [8] is reported as “Non-Toxic”. In addition, the microsomal CLint in series [9] was 99 µL/min/mg.
`CC(C)C[C@H](NC(=O)c1cnn(C2CCCCC2)n1)B(O)O`: the concentration for half-maximal inhibition (IC50) worked out at 1.57 µM in series [1], 6.31 µM in [3] and 0.062 µM in [4]. Also, the Ratio IC50 in the series listed under Homo sapiens [2] was determined as 4.
In the case of `O=C(N[C@H](B(O)O)C1CCC1)c1cn(C2CCCCC2)nn1`, the IC50 was 0.655 µM in series [1], 4.95 µM in [3] and less than 0.005 µM in series [4]. For the same compound, the Ratio IC50 in the series filed under Homo sapiens [2] worked out at 8.
For `CC(C)C[C@H](NC(=O)c1cc(C2CCCCC2)on1)B(O)O`, the IC50 in [1] came out at 0.145 µM; in series [3] it was 2.98 µM; in [4] it was 0.009 µM. For the same compound, the Ratio IC50 in the series listed under Homo sapiens [2] came to 21.
For the compound `COc1ccc([C@@H](O)[C@H](NC(=O)[C@H](C)NC(=O)CN2CCOCC2)C(=O)N[C@@H](CC2=CCCC2)C(=O)[C@@]2(C)CO2)cc1` [ZETOMIPZOMIB], the results for the IC50 in [1], in series [3] and in series [4] were 0.075 µM, 0.72 µM and 0.557 µM, respectively. Moreover, the Ratio IC50 in the series filed under Homo sapiens [11] was 1.29; in the series filed under Homo sapiens [2], 9.6.
As to `O=C(N[C@@H](CC1CCC1)B(O)O)c1cn(C2CCCCC2)nn1`, the IC50 in series [1] was 0.198 µM; in series [3], 13.1 µM; in series [4], less than 0.005 µM. Moreover, in the series filed under Homo sapiens [2], the Ratio IC50 was 66.
Taken in the same sequence, the figures for `O=C(N[C@H](B(O)O)C1CCCC1)c1cn(C2CCCCC2)nn1` were 0.132 µM, 5.2 µM, 0.018 µM and 39.
Taken in the same sequence, the figures for `CC(C)C[C@H](NC(=O)c1cc(C2CCCCC2)n(C)n1)B(O)O` were 11.2 µM, greater than 80 µM, 0.188 µM and greater than 7.
In the case of `CC(C)C[C@H](NC(=O)c1cn(C2CCCCC2)nn1)B(O)O`, the 50% inhibitory concentration (IC50) in series [1] was found to be 0.073 µM; in series [3] it was 3.22 µM; in [4], 0.003 µM. For the same compound, the Ratio IC50 amounted to 1070 in the series filed under Homo sapiens [11] and 44 in the series listed under Homo sapiens [2]. Moreover, in series [5], the Drug metabolism was 1273 pmol/h.
Turning to `Cc1c(C(=O)N[C@@H](CC(C)C)B(O)O)nnn1C1CCCCC1`, the concentration for half-maximal inhibition (IC50) was found to be 1.21 µM in series [1], 47.3 µM in [3] and 0.189 µM in series [4]. Moreover, the Ratio IC50 in the series listed under Homo sapiens [2] came out at 39.
In the case of `O=C(N[C@@H](CC1CCCCC1)B(O)O)c1cn(C2CCCCC2)nn1`, the half-maximal inhibitory concentration (IC50) in series [1] was 0.13 µM; in series [3], 19.5 µM; in [4] it was less than 0.01 µM. The Ratio IC50 in the series listed under Homo sapiens [2] worked out at 150. The Drug metabolism in series [5] is 680 pmol/h.
On to `CC(C)C[C@H](NC(=O)c1cnn(C2CCCCC2)c1)B(O)O`, for which the half-maximal inhibitory concentration (IC50) was 18.8 µM in series [1], greater than 80 µM in [3] and 0.132 µM in series [4]. In addition, in the series listed under Homo sapiens [2], the Ratio IC50 was greater than 4.
